Source: patent US20060069132A1, “Azolecarboxamide herbicides” (priority 2004, published 2006)

How the values were obtained:
[1] = test system: Surinam grass; experiment: Test C pre-/postemergence herbicide test; assay type: in vivo, Urochloa decumbens
In short: (§1)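 Emerged plants at the 1- to 4-leaf stage (2–18 cm), or freshly planted seeds, received test chemicals in a non-phytotoxic solvent mixture with surfactant. Response was visually scored against controls after 12 to 14 days in the greenhouse, on a 0 (no effect) to 100 (complete control) scale.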

[2] = test system: large crabgrass; experiment: Test C pre-/postemergence herbicide test; assay type: in vivo, Digitaria sanguinalis
In short: as §1

[3] = test system: goosegrass; experiment: Test C pre-/postemergence herbicide test; assay type: in vivo, Eleusine indica
In short: as §1

[4] = test system: johnsongrass; experiment: Test C pre-/postemergence herbicide test; assay type: in vivo, Sorghum halepense
In short: as §1

[5] = test system: kochia; experiment: Test C pre-/postemergence herbicide test; assay type: in vivo, Kochia scoparia
In short: as §1

[6] = test system: pigweed; experiment: Test C pre-/postemergence herbicide test; assay type: in vivo, Amaranthus retroflexus
In short: as §1

[7] = test system: soybean; experiment: Test C pre-/postemergence herbicide test; assay type: in vivo, Glycine max
In short: as §1

[8] = test system: velvetleaf; experiment: Test C pre-/postemergence herbicide test; assay type: in vivo, Abutilon theophrasti
In short: as §1

[9] = test system: rice; experiment: Test C flooded paddy test; assay type: in vivo, Oryza sativa; details: Oryza sativa
In short: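 Injury scored visually against controls on a 0 (no effect) to 100 (complete control) scale, 12 to 14 days after treatment in greenhouse. Flooded paddy plants treated at 2-leaf stage; postemergence plants at 1- to 4-leaf stage, 2 to 18 cm tall.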

CCn1nc2c(c1C(=O)Nc1cc(C(=O)N(C)C)ccc1F)CCC2(C)C [Compound 352, N-[5-[(dimethylamino)carbonyl]-2-fluorophenyl]-2-ethyl-2,4,5,6-tetrahydro-6,6-dimethyl-3-cyclopentapyrazolecarboxamide] was tested, and the “Plant response rating (0 = no effect, 100 = complete control), Surinam Grass” value ([1]; 125 g ai/ha, preemergence) was 50, the pest or weed control at 62 g/ha ([1]; Urochloa decumbens, pre-emergence, 312 h, 62 g ai/ha, preemergence, scale 0 to 100, read-out: Plant response rating, Surinam Grass) was 10% and the pest or weed control at 250 g/ha ([1]; Urochloa decumbens, pre-emergence, 312 h, 250 g ai/ha, scale 0-100, read-out: Plant response rating, Surinam Grass) was 100%. The pest or weed control at 500 g/ha ([1]; Urochloa decumbens, pre-emergence, 312 h, 500 g ai/ha, scale 0 to 100 (0 no effect, 100 complete control), visual, 12 to 14 days, read-out: Plant response rating, Surinam Grass) was 100%, the “Plant response rating (0 = no effect, 100 = complete control), Crabgrass, Large” value ([2]; 125 g ai/ha, preemergence) was 85 and the pest or weed control at 62 g/ha ([2]; Digitaria sanguinalis, pre-emergence, 312 h, 62 g ai/ha, preemergence, scale 0 to 100, read-out: Plant response rating, Crabgrass, Large) was 55%. For the same compound, the pest or weed control at 250 g/ha ([2]; Digitaria sanguinalis, pre-emergence, 312 h, 250 g ai/ha, scale 0-100, read-out: Plant response rating, Crabgrass, Large) was 100%, the pest or weed control at 500 g/ha ([2]; Digitaria sanguinalis, pre-emergence, 312 h, 500 g ai/ha, scale 0 to 100 (0 no effect, 100 complete control), visual, 12 to 14 days, read-out: Plant response rating, Crabgrass, Large) was 100% and the “Plant response rating (0 = no effect, 100 = complete control), Goosegrass” value ([3]; 125 g ai/ha, preemergence) was 85. For the same compound, the pest or weed control at 62 g/ha ([3]; Eleusine indica, pre-emergence, 312 h, 62 g ai/ha, preemergence, scale 0 to 100, read-out: Plant response rating, Goosegrass) was 80%, the pest or weed control at 250 g/ha ([3]; Eleusine indica, pre-emergence, 312 h, 250 g ai/ha, scale 0-100, read-out: Plant response rating, Goosegrass) was 100% and the pest or weed control at 500 g/ha ([3]; Eleusine indica, pre-emergence, 312 h, 500 g ai/ha, scale 0 to 100 (0 no effect, 100 complete control), visual, 12 to 14 days, read-out: Plant response rating, Goosegrass) was 100%. The “Plant response rating (0 = no effect, 100 = complete control), Johnsongrass” value ([4]; 125 g ai/ha, preemergence) was 90, the pest or weed control at 62 g/ha ([4]; Sorghum halepense, pre-emergence, 62 g ai/ha, preemergence, scale 0 to 100, read-out: Plant response rating, Johnsongrass) was 50% and the pest or weed control at 250 g/ha ([4]; Sorghum halepense, pre-emergence, 250 g ai/ha, scale 0-100, read-out: Plant response rating, Johnsongrass) was 90%. The pest or weed control at 500 g/ha ([4]; Sorghum halepense, pre-emergence, 500 g ai/ha, scale 0 to 100 (0 no effect, 100 complete control), visual, 12 to 14 days, read-out: Plant response rating, Johnsongrass) was 100%, the “Plant response rating (0 = no effect, 100 = complete control), Kochia” value ([5]; 125 g ai/ha, preemergence) was 85 and the pest or weed control at 62 g/ha ([5]; Bassia scoparia, pre-emergence, 62 g ai/ha, preemergence, scale 0 to 100, read-out: Plant response rating, Kochia) was 80%. The pest or weed control at 250 g/ha ([5]; Bassia scoparia, pre-emergence, 250 g ai/ha, scale 0-100, read-out: Plant response rating, Kochia) was 100%, the pest or weed control at 500 g/ha ([5]; Bassia scoparia, pre-emergence, 500 g ai/ha, scale 0 to 100 (0 no effect, 100 complete control), visual, 12 to 14 days, read-out: Plant response rating, Kochia) was 100% and the “Plant response rating (0 = no effect, 100 = complete control), Pigweed” value ([6]; 125 g ai/ha, preemergence) was 85. The pest or weed control at 62 g/ha ([6]; Amaranthus retroflexus, pre-emergence, 62 g ai/ha, preemergence, scale 0 to 100, read-out: Plant response rating, Pigweed) was 40%, the pest or weed control at 250 g/ha ([6]; Amaranthus retroflexus, pre-emergence, 250 g ai/ha, scale 0-100, read-out: Plant response rating, Pigweed) was 100% and the pest or weed control at 500 g/ha ([6]; Amaranthus retroflexus, pre-emergence, 500 g ai/ha, scale 0 to 100 (0 no effect, 100 complete control), visual, 12 to 14 days, read-out: Plant response rating, Pigweed) was 100%. The “Plant response rating (0 = no effect, 100 = complete control), Soybean” value ([7]; 125 g ai/ha, preemergence) was 15, the plant injury at 62 g/ha ([7]; Glycine max, pre-emergence, 62 g ai/ha, preemergence, scale 0 to 100, read-out: Plant response rating, Soybean) was 0% and the plant injury at 250 g/ha ([7]; Glycine max, pre-emergence, 250 g ai/ha, scale 0-100, read-out: Plant response rating, Soybean) was 50%. For the same compound, the plant injury at 500 g/ha ([7]; Glycine max, pre-emergence, 500 g ai/ha, scale 0 to 100 (0 no effect, 100 complete control), visual, 12 to 14 days, read-out: Plant response rating, Soybean) was 70%, the “Plant response rating (0 = no effect, 100 = complete control), Velvetleaf” value ([8]; 125 g ai/ha, preemergence) was 5 and the pest or weed control at 62 g/ha ([8]; Abutilon theophrasti, pre-emergence, 62 g ai/ha, preemergence, scale 0 to 100, read-out: Plant response rating, Velvetleaf) was 0%. The pest or weed control at 250 g/ha ([8]; Abutilon theophrasti, pre-emergence, 250 g ai/ha, scale 0-100, read-out: Plant response rating, Velvetleaf) was 70%, the pest or weed control at 500 g/ha ([8]; Abutilon theophrasti, pre-emergence, 500 g ai/ha, scale 0 to 100 (0 no effect, 100 complete control), visual, 12 to 14 days, read-out: Plant response rating, Velvetleaf) was 100% and the plant injury at 62 g/ha ([9]; 62 g ai/ha, scale 0 to 100, read-out: Rice plant response rating) was 20%. It also gave a plant injury at 125 g/ha ([9]; 125 g ai/ha, scale 0 to 100 (0 no effect, 100 complete control), read-out: Rice plant response rating) of 45%, a plant injury at 250 g/ha ([9]; 250 g ai/ha, scale of 0 to 100, 0 is no effect, 100 is complete control, read-out: Rice plant response rating) of 60% and a plant injury at 500 g/ha ([9]; 500 g ai/ha, visual rating after 12 to 14 days, scale 0 to 100 (0 no effect, 100 complete control), read-out: Plant response rating, Rice) of 70%.
